Measured values taken from patent EP4506003A1, “HALOGEN DERIVATIVES OF (4´,5´- METHYLENEDIOXYPHENYL)-6,7-DIMETHOXY-1,2,3,4-TETRAHYDROISOQUINOLINE FOR USE IN THE TREATMENT OF LEUKEMIA” (S.Yu Yunusov Institute of Chemistry of Plant Substances of …, priority 2023, dated 2025).
Marks after values point to notes of the source that are not given here. One block for each molecule: values may come before it.

Legend:
[1] = test system: CCRF-CEM (CCL-119) (T-lymphoblastic leukemia); assay: MTT cytotoxicity on CCRF-CEM cells; type: cell-based; details: 24 hours
Protocol: (§1) The cytotoxic properties of the compounds were determined in vitro using the MTT method in 96-well plates (Costar, USA). […] Rat liver hepatocytes were obtained according to the method, human blood mononuclear cells - according to [23]. Fibroblast cells were obtained according to the method of [24] with some modifications. Cell cultures were subcultured into 96-well plates according to the method of [21] by adding 100 μl of nutrient medium. The CCRF-CEM suspension culture was poured into a tube, centrifuged at 800 rpm for 10 minutes, and the supernatant was discarded. […] Data obtained in 3 independent experiments were expressed as the mean value for each concentration ± standard error of the mean, relative to the control values (cells without test compounds). The cytotoxic effect of each of the studied compounds was compared with the effect of the cytostatic Cisplatin-Naprod (India), containing cisplatin as an active component. Table 1: IC50 μM value for test compounds

fibroblasts = assay: MTT cytotoxicity on fibroblasts; type: cell-based; details: 24 hours
Protocol: as §1

Rat liver hepatocytes = assay: MTT cytotoxicity on hepatocytes; type: cell-based; details: 24 hours
Protocol: as §1

[2] = test system: blood of patients with ALL; assay: Hemogram of blood of patients with ALL after exposure; type: cell-based; details: 10 µg/ml, 3 hours, 37.0°C
Protocol: (§3) The effect of compounds F1 and F2 was studied on biological material (blood) of patients with hematological malignancies (leukemia), as well as for individual nosologies, in particular, patients with leukemia (combined group) (n=224), T-ALL (n=84), B-ALL (n=100), ALL (n=100), AML (n= 98), AML (n=94) and AML (n= 98) were studied. A total of 798 blood samples from patients with leukemia were examined.
(§4) 5 ml of venous blood from sick and conditionally healthy individuals were collected into Vacutainer tubes with the addition of EDTA (Himedia, India).
(§5) The resulting blood was divided into aliquots of 1 ml and 10 µl (10 µg/ml) of the studied drugs (cytosar, doxorubicin, F1 and F2) were added to each tube.

[3] = test system: blood of patients with AML; assay: Hemogram of blood of patients with AML after exposure (Example 12, Table 9); type: cell-based; details: AML (Table 9); 10 µg/ml; 3 hours, 37.0°C
Protocol: (§6) The drugs Cytosar (Alexan) (Ebewe Pharma, Austria) and doxorubicin (Naprod, Mumbai, India) recommended by WHO for the treatment of the above oncohematological diseases were used as comparison drugs.
as §4, §5

[4] = test system: blood of patients with leukemia (combined group); assay: Hemogram of blood of patients with leukemia (combined group) after exposure; type: cell-based; details: 10 µg/ml, 3 hours, 37.0°C
Excerpt: as §3, §6, §4, §5

[5] = test system: blood of patients with T-ALL; assay: Hemogram of blood of patients with T-ALL after exposure; type: cell-based; details: 10 µg/ml, 3 hours, 37.0°C
Excerpt: as §3, §6, §4, §5

[6] = test system: blood of patients with B-ALL; assay: Hemogram of blood of patients with B-ALL after exposure; type: cell-based; details: 10 µg/ml, 3 hours, 37.0°C
Protocol: A total of 798 blood samples from patients with leukemia were examined.
as §6, §4, §5

[7] = test system: blood of patients with AML; assay: Hemogram of blood of patients with AML after exposure (Example 14, Table 11); type: cell-based; details: AML (Table 11); 10 µg/ml; 3 hours, 37.0°C
Excerpt: as §3, §6, §4, §5

[8] = test system: blood of conditionally healthy individuals; assay: Hemogram of blood of conditionally healthy individuals after exposure to the drugs; details: 10 µg/ml, 3 hours, 37.0°C
Protocol: as §4, §5

[9] = test system: blood of patients with AML; assay: Hemogram of blood of patients with AML after exposure (Example 13, Table 10; also OMML); type: cell-based; details: AML (Table 10); 10 µg/ml; 3 hours, 37.0°C
Protocol: as §6, §4, §5

[10] = Acute toxicity study (LD50); details: both, outbred white, mouse, in vivo, ip
Protocol: (§2) We studied the acute toxicity of compound F1 in vivo. The experiments were carried out on outbred white mice of both sexes weighing 18-20 g (24 pcs.). The animals were divided into groups of 12 mice each. The compound was dissolved in DMSO and then adjusted to the desired concentration with 0.9% NaCl solution and administered intraperitoneally and subcutaneously in a dose range from 5.0 to 200.0 mg/kg. […] The maximum relative error of the applied dose was no more than 5%.
as §2, with “F2” for “F1”, “brought” for “adjusted”, “subcutaneously to animals” for “subcutaneously”, “administered” for “applied”

Compound: N.N.[Cl][Pt][Cl] [Cisplatin, cisplatin, reference compound]
- IC50 [1]: 12.4 µM
- IC50 (fibroblasts): 29.4 µM
- IC50 (Rat liver hepatocytes): 28.7 µM

- Band (s/n) neutrophils [8]: 1,8±0,2 %
- Blasts [8]: 0,0±0,0%
- Destroyed cells [8]: 0,0±0,0%
- Eosinophils [8]: 2,1±0,4%
- Lymphocytes [8]: 28,0±1,2%
- Monocytes [8]: 6,6±0,4 %
- Myelocytes [8]: 0,0±0,0%
- Promyelocytes [8]: 0,0±0,0%
- Segmented (s/i) neutrophils [8]: 61,5±1,2%
Compound: Nc1ccn([C@@H]2O[C@H](CO)[C@@H](O)[C@@H]2O)c(=O)n1 [Cytosar, cytarabine, reference compound]
- Band (s/n) neutrophils [2]: 0,4±0,2%
- Blasts [2]: 78,7±1,4 %
- Destroyed cells [2]: 4,8±1,4 %
- Eosinophils [2]: 0,0±0,0%
- Lymphocytes [2]: 11,4±0,8%
- Monocytes [2]: 2,2±0,4%
- Myelocytes [2]: 0,2±0,1%
- Promyelocytes [2]: 0,0±0,0%
- Segmented (s/i) neutrophils [2]: 2,4±0,6%
- Band (s/n) neutrophils [3]: 1,2±0,5%
- Blasts [3]: 65,4±3,9 %
- Destroyed cells [3]: 6,3±1,7 %
- Eosinophils [3]: 1,0±0,9%
- Lymphocytes [3]: 12,5±1,7%
- Monocytes [3]: 3,4±0,8%
- Myelocytes [3]: 1,4±0,6%
- Promyelocytes [3]: 0,9±0,6%
- Segmented (s/i) neutrophils [3]: 5,6±1,2%
- Band (s/n) neutrophils [4]: 1,1±0,4 %
- Blasts [4]: 65,9±2,8 %
- Destroyed cells [4]: 9,0±1,6 %
- Eosinophils [4]: 0,4±0,3%
- Lymphocytes [4]: 13,7±1,6%
- Monocytes [4]: 3,5±0,6 %
- Myelocytes [4]: 1,1±0,3 %
- Promyelocytes [4]: 0,2±0,1%
- Segmented (s/i) neutrophils [4]: 6,7±1,1%
- Band (s/n) neutrophils [5]: 1,0±0,1%
- Blasts [5]: 73,5±2,0 %
- Destroyed cells [5]: 8,8±1,0 %
- Eosinophils [5]: 0,0±0,0%
- Lymphocytes [5]: 11,5±1,0 %
- Monocytes [5]: 2,3±0,4%
- Myelocytes [5]: 0,0±0,0%
- Promyelocytes [5]: 0,0±0,000%
- Segmented (s/i) neutrophils [5]: 3,0±0,4 %
- Band (s/n) neutrophils [6]: 0,6±0,3%
- Blasts [6]: 63,5±3,4 %
- Destroyed cells [6]: 8,9±2,2 %
- Eosinophils [6]: 0,1±0,1%
- Lymphocytes [6]: 17,2±2,0%
- Monocytes [6]: 4,6±1,2%
- Myelocytes [6]: 0,7±0,4%
- Promyelocytes [6]: 0,0±0,0%
- Segmented (s/i) neutrophils [6]: 6,1±0,9%
- Band (s/n) neutrophils [7]: 3,5±1,0 %
- Blasts [7]: 59,5±3,7 %
- Destroyed cells [7]: 12,4±1,7 %
- Eosinophils [7]: 4,0±0,2%
- Lymphocytes [7]: 8,4 ±0,9%
- Monocytes [7]: 4,9±1,2 %
- Myelocytes [7]: 1,8±0,4%
- Promyelocytes [7]: 0,0±0,0%
- Segmented (s/i) neutrophils [7]: 9,2±2,3%
- Band (s/n) neutrophils [9]: 3,6±0,5%
- Blasts [9]: 50,2±2,8%
- Destroyed cells [9]: 7,8±0,6 %
- Eosinophils [9]: 0,6±0,3%
- Lymphocytes [9]: 6,6±0,7%
- Monocytes [9]: 1,2±0,2 %
- Myelocytes [9]: 16,0±1,4 %
- Promyelocytes [9]: 0,0±0,0%
- Segmented (s/i) neutrophils [9]: 14,1±1,2 %

Compound: COc1cccc2c1C(=O)c1c(O)c3c(c(O)c1C2=O)C[C@@](O)(C(=O)CO)C[C@@H]3O[C@H]1C[C@H](N)[C@H](O)[C@H](C)O1 [Doxorubicin, doxorubicin, reference compound]
- Band (s/n) neutrophils [2]: 0,3±0,1%
- Blasts [2]: 76,4±1,7 %
- Destroyed cells [2]: 9,0±1,1*^ %
- Eosinophils [2]: 0,2±0,1%
- Lymphocytes [2]: 9,9±1,3%
- Monocytes [2]: 1.9±0,6%
- Myelocytes [2]: 0,2±0,1%
- Promyelocytes [2]: 0,0±0,0%
- Segmented (s/i) neutrophils [2]: 2,2±0,3%
- Band (s/n) neutrophils [3]: 0,5±0,4%
- Blasts [3]: 68,4±3,6 %
- Destroyed cells [3]: 5,6±1,4 %
- Eosinophils [3]: 0,8±0,7%
- Lymphocytes [3]: 13,2±2,4%
- Monocytes [3]: 5.2±1,5%
- Myelocytes [3]: 0,9±0,8%
- Promyelocytes [3]: 0,0±0,0%
- Segmented (s/i) neutrophils [3]: 5,5±1,2%
- Band (s/n) neutrophils [4]: 1,8±0,5%
- Blasts [4]: 65,6±2,6 %
- Destroyed cells [4]: 11,4±2,2 %
- Eosinophils [4]: 3,8±2,4%
- Lymphocytes [4]: 15,0±1,8%
- Monocytes [4]: 5,3±1,2%
- Myelocytes [4]: 3,3±1,2%
- Promyelocytes [4]: 0,0±0,000%
- Segmented (s/i) neutrophils [4]: 5,8±0,7%
- LD50 at 1 week [10]: 10.8 mg/kg
- Band (s/n) neutrophils [5]: 1,2±0,1 %
- Blasts [5]: 67,2±0,9 %
- Destroyed cells [5]: 13,4±0,5 %
- Eosinophils [5]: 0,0±0,0%
- Lymphocytes [5]: 9,8±0,1 %
- Monocytes [5]: 1.7±0,2%
- Myelocytes [5]: 0,0±0,0%
- Promyelocytes [5]: 0,0±0,0%
- Segmented (s/i) neutrophils [5]: 6,7±0,4%
- Band (s/n) neutrophils [6]: 0,7±0,2%
- Blasts [6]: 64,3±3,7%
- Destroyed cells [6]: 13,0±2,8 %
- Eosinophils [6]: 0,1±0,1%
- Lymphocytes [6]: 15,0±2,9%
- Monocytes [6]: 1.6±0,5%
- Myelocytes [6]: 0,6±0,3%
- Promyelocytes [6]: 0,0±0,0%
- Segmented (s/i) neutrophils [6]: 4,9±0,9%
- Band (s/n) neutrophils [7]: 0,8±0,2%
- Blasts [7]: 45,4±1,9 %
- Destroyed cells [7]: 24,0±4,0 %
- Eosinophils [7]: 0,0±0,0%
- Lymphocytes [7]: 9,7±1,5%
- Monocytes [7]: 11.2±2,3 %
- Myelocytes [7]: 0,0±0,0%
- Promyelocytes [7]: 0,0±0,0%
- Segmented (s/i) neutrophils [7]: 9,1±1,5%
- Band (s/n) neutrophils [8]: 1,5±0,2%
- Blasts [8]: 0,0±0,0%
- Destroyed cells [8]: 0,0±0,0%
- Eosinophils [8]: 1,7±0,2%
- Lymphocytes [8]: 28,1±0,9%
- Monocytes [8]: 6,1±0,4%
- Myelocytes [8]: 0,0±0,0%
- Promyelocytes [8]: 0,0±0,0%
- Segmented (s/i) neutrophils [8]: 62,6±1,0%
- Band (s/n) neutrophils [9]: 3,4±0,5%
- Blasts [9]: 58,4±1,9%
- Destroyed cells [9]: 15,1±1,1 %
- Eosinophils [9]: 0,7±0,3%
- Lymphocytes [9]: 6,1±0,7%
- Monocytes [9]: 1.6±0,3 %
- Myelocytes [9]: 4,0±0,4 %
- Promyelocytes [9]: 0,0±0,0%
- Segmented (s/i) neutrophils [9]: 10,8±1,0%
